Results reported in patent US11453697B1, “Cyclic di-nucleotide compounds as sting agonists” (Merck Sharp & Dohme Corp., priority 2015, dated 2022).
Read-outs that look alike come from different tables or passages of the source.

Columns and labels:
[1] = molecular target: full-length HAQ STING (Homo sapiens (Human), UniProt Q86WV6, G230A/H232R/R293Q/R71H); assay: 3H-cGAMP filtration binding assay (HAQ STING); details: competition with tritiated cGAMP, HAQ STING membrane
From the text: The ability of compounds to bind STING is quantified by the ability to compete with tritiated cGAMP ligand for human STING receptor membrane using a radioactive filter-binding assay. The binding assay employs STING receptor obtained from Hi-Five cell membranes overexpressing full-length HAQ STING prepared in-house and tritiated cGAMP ligand also purified in-house.
The ability of compounds to bind STING is quantified by their ability to compete with tritiated cGAMP ligand for human STING receptor membrane using a radioactive filter-binding assay.
The basic HAQ STING filtration assay protocol is as follows:
Compound and membrane then preincubated for 60 min at RT to allow compound binding to equilibrate. Following equilibration, 8 nM of [^3H] c-GAMP ligand was prepared by diluting into assay buffer, and 50 uL of this working stock was then manually added to each well of the assay plate. […] The filter plates were then dried at 55° C. for 30 min using a pressurized VWR oven before 30 uL of Ultima GoldF scintillate was added to each well. Tritium levels for each reaction well were then measured using a PerkinElmer TopCount plate reader.
After normalization to controls, the percent activity for each compound concentration was calculated by measuring the amount of remaining radioactivity. The plot of percent activity versus the log of compound concentration was fit with a 4-parameter dose response equation to calculate EC50 values.

[2] = system: IFN-β secretion in THP1 cells; assay: IFN-β secretion in THP1 cell culture (5 h); assay type: cell-based, human
Experimental: The ability of compounds to stimulate the secretion of interferon-beta from THP1 cells was measured using a human IFN-β AlphaLISA kit (Perkin Elmer, Cat. No. AL265F). The basic protocol is as follows:
The cell viability and count was ascertained using a Beckman Coulter V-Cell XR cell counter. The cells suspension was centrifuged at 200×g for 5 min at RT. […] Subsequent liquid transfers were performed using either a Matrix electronic multichannel pipette or an Agilent Bravo Automated Liquid Handling Platform.
The assay was started by dispensing 40 μL of the previously prepared cell suspension into the wells of the plate containing compounds. After 5 h incubation at 37° C., 5% CO2 in a humidified atmosphere, the plate of cells and compounds was centrifuged at 200×g for 5 min at RT. […] To these supernatant-containing wells was added 10 μL of 5× Anti-Analyte Acceptor beads (50 μg/mL of AlphaLISA HiBlock Buffer) and incubated for 30 min at RT while shaking on an orbital plate shaker. To each well was added 10 μL of 5× Biotinylated Antibody Anti-analyte (5 nM in AlphaLISA HiBlock Buffer) and incubated on an orbital plate shaker for 60 min at RT or overnight at 4° C. To each well was added 25 μL of 2× SA-Donor beads (80 μg/mL in AlphaLISA HiBlock Buffer) and incubated for 30-45 min at RT in the dark while shaking on an orbital plate shaker. The plate was then read on a Perkin Elmer Envision (λex=680 nm, λem=[…]). The percent effect of the AlphaLISA signal at each compound concentration was calculated based on 30 uM cGAMP positive controls and 0.3% DMSO negative controls. The plot of percent effect versus the log of compound concentration was fit with a 4-parameter concentration response equation to calculate EC50 values.
Compounds of the disclosure were evaluated for IFN-β secretion in THP1 cell culture as described above.

[3] = read-out: EC50 (nM), 3H-cGAMP filtration binding assay for HAQ STING
[4] = IFN-β secretion in THP1 cell culture, 5 h, compound at 30 μM, percent activation relative to 2′3′-cGAMP
[5] = EC50 (nM), 3H-cGAMP filtration binding assay for HAQ STING

Chain of full-length HAQ STING (Q86WV6 other isoform, or with tags, fused parts or gaps, stated change not applied): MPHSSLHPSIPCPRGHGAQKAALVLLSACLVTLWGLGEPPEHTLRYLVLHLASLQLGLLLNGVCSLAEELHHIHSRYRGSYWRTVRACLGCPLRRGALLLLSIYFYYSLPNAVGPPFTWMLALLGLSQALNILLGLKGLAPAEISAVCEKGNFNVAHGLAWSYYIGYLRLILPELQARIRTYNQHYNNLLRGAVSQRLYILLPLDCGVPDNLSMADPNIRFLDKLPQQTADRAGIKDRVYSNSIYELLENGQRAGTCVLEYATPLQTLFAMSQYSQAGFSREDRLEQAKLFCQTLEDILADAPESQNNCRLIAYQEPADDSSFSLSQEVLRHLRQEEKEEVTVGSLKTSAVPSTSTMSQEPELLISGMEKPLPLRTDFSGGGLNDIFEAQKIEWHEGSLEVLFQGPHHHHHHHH

Structure (SMILES): Nc1nc2c(ncn2[C@@H]2O[C@@H]3COP(=O)(S)O[C@H]4[C@@H](O)[C@H](n5ccc6c(N)ncnc65)O[C@@H]4COP(=O)(S)O[C@@H]2C3)c(=O)[nH]1 (single isomer, unassigned) [Example 77]
- EC50 [1, 3]: 161 nM
- % Effect at 30 μM relative to 2′3′-cGAMP [2, 4]: 39%

Structure (SMILES): Nc1nc2c(ncn2[C@@H]2O[C@@H]3COP(=O)(S)O[C@H]4[C@@H](O)[C@H](n5ccc6c(N)ncnc65)O[C@@H]4COP(=O)(S)O[C@@H]2C3)c(=O)[nH]1 (single isomer, unassigned) [Example 78]
- EC50 [1, 3]: 14.6 nM

Structure (SMILES): Nc1nc2c(ncn2[C@@H]2O[C@@H]3COP(=O)(S)O[C@H]4[C@@H](O)[C@H](n5ccc6c(N)ncnc65)O[C@@H]4COP(=O)(S)O[C@@H]2C3)c(=O)[nH]1 (single isomer, unassigned) [Example 79]
- EC50 [1, 3]: 103 nM

Structure (SMILES): Nc1nc2c(ncn2[C@@H]2O[C@@H]3COP(=O)(S)O[C@H]4[C@@H](O)[C@H](n5ccc6c(N)ncnc65)O[C@@H]4COP(=O)(S)O[C@@H]2C3)c(=O)[nH]1 (single isomer, unassigned) [Example 80]
- EC50 [1, 3]: 1.3 nM

Structure (SMILES): Nc1nc2c(ncn2[C@@H]2O[C@@H]3COP(=O)(S)OC4[C@@H](COP(=O)(S)O[C@H]2C3)O[C@@H](n2cnc3c(N)ncnc32)[C@H]4F)c(=O)[nH]1 (single isomer, unassigned) [Example 132]
- EC50 [1, 3]: 25.9 nM

Structure (SMILES): Nc1nc2c(ncn2[C@@H]2O[C@@H]3COP(O)(=S)O[C@H]4C[C@H](n5cnc6c(=O)[nH]cnc65)O[C@@H]4COP(O)(=S)O[C@@H]2[C@@H]3F)c(=O)[nH]1 (single isomer, unassigned) [Example 305]
- EC50 [1, 5]: 326 nM
- % Effect at 30 μM relative to 2′3′-cGAMP [2]: 50%

Structure (SMILES): Nc1nc2c(ncn2[C@@H]2O[C@@H]3COP(O)(=S)O[C@H]4C[C@H](n5cnc6c(=O)[nH]cnc65)O[C@@H]4COP(O)(=S)O[C@@H]2[C@@H]3F)c(=O)[nH]1 (single isomer, unassigned) [Example 306]
- EC50 [1, 5]: 3.6 nM
- % Effect at 30 μM relative to 2′3′-cGAMP [2]: 153%

Structure (SMILES): Nc1nc2c(ncn2[C@@H]2O[C@@H]3CO[P@@](=O)(S)O[C@H]4C[C@H](n5cnc6c(=O)[nH]cnc65)O[C@@H]4CO[P@@](=O)(S)O[C@@H]2[C@@H]3F)c(=O)[nH]1 (single isomer, unassigned) [Example 307]
- EC50 [1, 5]: < 1 nM
- % Effect at 30 μM relative to 2′3′-cGAMP [2]: 174%

Structure (SMILES): Nc1nc2c(ncn2[C@@H]2O[C@@H]3COP(=O)(S)O[C@H]4[C@H](F)[C@H](n5cnc6c(=O)[nH]cnc65)O[C@@H]4COP(=O)(S)O[C@@H]2C3)c(=O)[nH]1 (single isomer, unassigned) [Example 317]
- EC50 [1, 3]: < 1 nM
- % Effect at 30 μM relative to 2′3′-cGAMP [2, 4]: 107%

Structure (SMILES): Nc1nc2c(ncn2[C@@H]2O[C@@H]3COP(=O)(S)O[C@H]4[C@H](F)[C@H](n5cnc6c(=O)[nH]cnc65)O[C@@H]4COP(=O)(S)O[C@@H]2C3)c(=O)[nH]1 (single isomer, unassigned) [Example 318]
- EC50 [1, 3]: 6.2 nM
- % Effect at 30 μM relative to 2′3′-cGAMP [2, 4]: 150%

Structure (SMILES): Nc1nc2c(ncn2[C@@H]2S[C@@H]3COP(=O)(O)OC4C(O)[C@H](n5cnc6c(N)ncnc65)O[C@@H]4COP(=O)(O)OC2C3O)c(=O)[nH]1 (stereo in doubt) [Example 11, (5R,7R,8R,12aR,14R,15R,15aS,16S)-7-(2-amino-6-oxo-1,6-dihydro-9H-purin-9-yl)-14-(6-amino-9H-purin-9-yl)-15,16-dihydroxyoctahydro-12H-5,8-methanofuro[3,2-l][1,3,9,11,6,2,10] tetraoxathiadiphosphacyclotetradecine-2,10-diolate 2,10-dioxide]
- EC50 [1, 3]: 1.2 nM
- % Effect at 30 μM relative to 2′3′-cGAMP [2, 4]: 169%

Structure (SMILES): C#C[C@@]12COP(=O)(O)OC3C(O)[C@@H](COP(=O)(O)OC1C(O)[C@H](n1cnc4c(N)ncnc41)O2)O[C@H]3n1cnc2c(=O)[nH]c(N)nc21 (stereo in doubt) [Example 12, (5R,7R,8R,12aR,14R,15R,15aS,16R)-7-(2-amino-6-oxo-1,6-dihydro-9H-purin-9-yl)-14-(6-amino-9H-purin-9-yl)-12a-ethynyl-15,16-dihydroxyoctahydro-12H-5,8-methanofuro[3,2-l][1,3,6,9,11,2,10] pentaoxadiphosphacyclotetradecine-2,10-diolate 2,10-dioxide]
- EC50 [1, 3]: < 1 nM
- % Effect at 30 μM relative to 2′3′-cGAMP [2, 4]: 89%

Structure (SMILES): Nc1nc2c(ncn2[C@@H]2O[C@@H]3COP(=O)(O)OC4C(O)[C@H](c5cnn6c(=O)[nH]cnc56)O[C@@H]4COP(=O)(O)OC2C3O)c(=O)[nH]1 (stereo in doubt) [Example 321, 8-[(5R,7R,8R,12aR,14S,15S,15aS,16R)-7-(2-amino-6-oxo-1,6-dihydro-9H-purin-9-yl)-2,10,15,16-tetrahydroxy-2,10-dioxidooctahydro-12H-5,8-methanofuro[3,2-l][1,3,6,9,11,2,10]pentaoxadiphosphacyclotetradecin-14-yl]pyrazolo[1,5-a][1,3,5]triazin-4(3H)-one]
- EC50 [1, 3]: 112 nM
- % Effect at 30 μM relative to 2′3′-cGAMP [2, 4]: 36%

Structure (SMILES): Nc1nc2c(ncn2[C@@H]2O[C@@H]3COP(=O)(O)O[C@H]4[C@H](Cl)[C@H](n5cnc6c(N)ncnc65)O[C@@H]4COP(=O)(O)O[C@@H]2[C@@H]3O)c(=O)[nH]1 [Example 15, 2-amino-9-[(5R,7R,8R,12aR,14R,15S,15aR,16R)-14-(6-amino-9H-purin-9-yl)-15-chloro-2,10,16-trihydroxy-2,10-dioxidooctahydro-12H-5,8-methanofuro[3,2-l][1,3,6,9,11,2,10]pentaoxadiphosphacyclotetradecin-7-yl]-1,9-dihydro-6H-purin-6-one]
- EC50 [1, 3]: 378 nM
- % Effect at 30 μM relative to 2′3′-cGAMP [2, 4]: 39%

Structure (SMILES): Nc1nc2c(nnn2[C@@H]2O[C@@H]3COP(=O)(O)O[C@H]4[C@@H](O)[C@H](n5cnc6c(N)ncnc65)O[C@@H]4COP(=O)(O)O[C@@H]2[C@@H]3O)c(=O)[nH]1 [Example 69, 5-amino-3-[(5R,7R,8R,12aR,14R,15R,15aS,16R)-14-(6-amino-9H-purin-9-yl)-2,10,15,16-tetrahydroxy-2,10-dioxidooctahydro-12H-5,8-methanofuro[3,2-l][1,3,6,9,11,2,10]pentaoxadiphosphacyclotetradecin-7-yl]-3,6-dihydro-7H-[1,2,3]triazolo[4,5-d]pyrimidin-7-one]
- EC50 [1, 3]: < 1 nM

Structure (SMILES): Nc1nc2c(ncn2[C@@H]2O[C@@H]3CO[P@@](O)(=S)O[C@H]4[C@H](F)[C@H](n5cnc6c(N)ncnc65)O[C@@H]4CO[P@@](O)(=S)O[C@@H]2C3)c(=O)[nH]1 [Example 130, 2-amino-9-[(2R,5S,7R,8R,10R,12aR,14R,15S,15aR)-14-(6-amino-9H-purin-9-yl)-15-fluoro-2,10-dihydroxy-2,10-disulfidooctahydro-12H-5,8-methanofuro[3,2-l][1,3,6,9,11,2,10]pentaoxadiphosphacyclotetradecin-7-yl]-1,9-dihydro-6H-purin-6-one]
- EC50 [1, 3]: < 1 nM

Structure (SMILES): Nc1nc2c(nnn2[C@@H]2O[C@@H]3COP(=O)(S)O[C@H]4[C@H](F)[C@H](n5cnc6c(=O)[nH]cnc65)O[C@@H]4COP(=O)(S)O[C@@H]2[C@H]3F)c(=O)[nH]1 (stereo partly drawn) [Example 348, 5-amino-3-[(5R,7R,8S,12aR,14R,15S,15aR,16S)-15,16-difluoro-2,10-dioxido-14-(6-oxo-1,6-dihydro-9H-purin-9-yl)-2,10-disulfanyloctahydro-12H-5,8-methanofuro[3,2-l][1,3,6,9,11,2,10]pentaoxadiphosphacyclotetradecin-7-yl]-3,6-dihydro-7H-[1,2,3]triazolo[4,5-d]pyrimidin-7-one]
- % Effect at 30 μM relative to 2′3′-cGAMP [2, 4]: 8%
